Experiments:
[1] = target: T1, steroid sulfatase in human skin homogenate (Homo sapiens, UniProt P08842); assay: Assay Using Human Skin Homogenate ([3H]DHEAS cleavage); assay type: biochemical; settings: human cadaver skin homogenate; DHEAS substrate; 18 hrs at 37° C.
T1 construct: Frozen specimens of human cadaver skin; from tissue; host or cells: human cadaver skin, minced and suspended in Triton X-100 buffer
T1 sequence (P08842 22-583): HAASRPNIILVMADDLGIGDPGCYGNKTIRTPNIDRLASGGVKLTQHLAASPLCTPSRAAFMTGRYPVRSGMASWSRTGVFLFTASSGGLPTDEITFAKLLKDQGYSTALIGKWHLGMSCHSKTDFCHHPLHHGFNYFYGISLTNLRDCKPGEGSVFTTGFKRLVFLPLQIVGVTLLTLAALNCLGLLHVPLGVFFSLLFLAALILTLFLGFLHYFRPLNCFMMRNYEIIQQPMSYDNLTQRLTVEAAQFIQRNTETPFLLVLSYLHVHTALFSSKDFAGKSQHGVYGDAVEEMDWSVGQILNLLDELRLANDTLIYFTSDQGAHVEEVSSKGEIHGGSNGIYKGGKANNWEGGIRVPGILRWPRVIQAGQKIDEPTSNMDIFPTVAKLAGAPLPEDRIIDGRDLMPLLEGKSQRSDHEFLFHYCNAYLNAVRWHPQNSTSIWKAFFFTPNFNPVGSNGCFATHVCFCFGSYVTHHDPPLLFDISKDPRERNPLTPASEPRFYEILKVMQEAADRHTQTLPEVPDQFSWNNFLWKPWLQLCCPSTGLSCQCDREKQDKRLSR
Protocol: Frozen specimens of human cadaver skin (about 100 mg per sample) are minced Into small pieces (about 1×1 mm) using sharp scissors. The pieces obtained are suspended in ten volumes (w/w) of buffer (20 mM Tris-HCl, pH 7.5), containing 0.1% Triton X-100. Test compounds (e.g. compounds of the present invention) are added at graded concentrations from stock solutions In ethanol or DMSO. Second, DHEAS as the substrate is added (1 μC/ml [^3H]DHEAS, specific activity: about 60 Ci/mmol, and 20 μM unlabeled DHEAS).
Samples are incubated for 18 hrs at 37° C. At the end of the Incubation period, 50 μl of 1 M Tris, pH 10.4 and 3 ml of toluene are added. A 1-ml aliquot of the organic phase is removed and subjected to liquid scintillation counting. The determined dpm-values in the aliquots are converted to nmol of DHEA cleaved per g of skin per hour.

[2] = target: T2, purified human steroid sulfatase (Homo sapiens, UniProt P08842); assay: Assay of Human Steroid Sulfatase (4-methylumbelliferyl sulfate cleavage, fluorescence); assay type: biochemical; settings: purified human placental enzyme; 4-methylumbelliferyl sulfate substrate; 37° C., 1 hour
T2 construct: Human placenta is obtained freshly after delivery; from tissue; host or cells: human placenta (microsomes, Triton X-100 extract, chromatographically purified)
T2 sequence (P08842 22-583): T1 sequence (P08842 22-583)
Protocol: Human placenta is obtained freshly after delivery and stripped of membranes and connective tissues. For storage, the material is frozen at −70° C. After thawing, all further steps are carried out at 4° C., while pH values are adjusted at 20° C. 400 g of the tissue is homogenized in 1.2 l of buffer A (50 mM Tris-HCl, pH 7.4, 0.25 M sucrose). The homogenate obtained is centrifuged at 10,000×g for 45 minutes. The supernatant is set aside and the pellet obtained is re-homogenized in 500 ml of buffer A. After centrifugation, the two supernatants obtained are combined and subjected to ultracentrifugation (100,000×g, 1 hour). The pellet obtained is resuspended in buffer A and centrifugation is repeated. The pellet obtained is suspended in 50 ml of 50 mM Tris-HCl, pH 7.4 and stored at −20° C. until further work-up. […]
It is known that purified human steroid sulfatase not only is capable to cleave steroid sulfates, but also readily cleaves aryl sulfates such as 4-methylumbelliferyl sulfate which is used in the present test system as an activity indicator. […]
Plates are incubated at 37° C. for 1 hour. […] Fluorescence intensity is determined in a Titertek Fluoroskan. […]
[formula] wherein I100 is the intensity observed in the absence of inhibitor and s is a slope factor. Estrone sulfamate is used as a reference compound and its IC50 value is determined in parallel to all other test compounds. […]

IC50 [1]	melting point	Structure (SMILES)	IC50 [2]
30 to 270 nM	192 to 195 °C	NC(=O)c1ccc(C(F)(F)F)cc1N1CCC(NS(=O)(=O)NC(=O)c2cc(C(F)(F)F)cc(C(F)(F)F)c2)CC1 [Example 1, N-[[4-[1-(2-Aminocarbonyl-5-trifluoromethyl-phenyl)]-piperidinyl]-amino]-sulfonyl-3,5-bis-trifluoromethyl-benzamide]	–
–	–	CC12CCC3c4ccc(OS(N)(=O)=O)cc4CCC3C1CCC2=O (stereo not drawn) [estrone sulfamate]	~60 nM
